Assay results: patent publication US20250144067A1, “PERSONALIZED STARVATION THERAPY FOR CANCER” (Faeth Therapeutics, Inc., priority 2021, published 2025)
Structures can show the parent of a compound that is named as a salt. Where two headings read alike, the source gives them in different places.

How the values were obtained:
[1] = tested on: NCI-H292 lung cancer cells; experiment: FDA drug screening, complete media vs cholesterol-free media with simvastatin (TABLE 2); assay type: cell-based, human
[2] = tested on: NCI-H292 lung cancer cells; experiment: FDA drug screening, complete media vs cholesterol-free media without statin (TABLE 1); assay type: cell-based, human
[3] = NCI-H292 cells, drug in cholesterol-free media with simvastatin 0.04 μM
[4] = NCI-H292 cells, drug in complete media
[5] = complete media vs cholesterol-free media + simvastatin (0.04 μM), >0 enhanced anti-cancer activity, about 0 neutral, <0 antagonist
[6] = NCI-H292 cells, cholesterol-free media without statin, FDA drug library screen
[7] = NCI-H292 cells, complete media, FDA drug library screen
[8] = complete vs cholesterol-free media, >0 enhanced anti-cancer activity, about 0 neutral, <0 antagonist
[9] = NCI-H292 cells, FDA drug library screen, cholesterol-free media with simvastatin 0.04 μM
[10] = NCI-H292 cells, FDA drug library screen, complete media
[11] = complete media minus cholesterol-free media + simvastatin, >0 enhanced anti-cancer activity, about 0 neutral, <0 antagonist
[12] = Complete minus Cholesterol-free, greater than 0 enhanced anti-cancer activity, about 0 neutral, below 0 antagonist
[13] = NCI-H292 cells, FDA drug library screen, cholesterol-free media without statin
[14] = NCI-H292 cells, cholesterol-free media without statin
[15] = complete vs cholesterol-free media, greater than 0 enhanced anti-cancer activity, about 0 neutral, below 0 antagonists
[16] = NCI-H292 cells, cholesterol-free media with simvastatin 0.04 μM, FDA drug library screen (TABLE 2)
[17] = NCI-H292 cells, complete media, FDA drug library screen (TABLE 2)
[18] = complete media minus cholesterol-free media + simvastatin (0.04 μM), >0 enhanced anti-cancer activity, about 0 neutral, <0 antagonist
[19] = Complete minus Cholesterol-free, >0 enhanced anti-cancer activity, about 0 neutral, <0 antagonist
[20] = complete media minus cholesterol-free media + simvastatin, […]
[21] = Complete minus Cholesterol-free, […]
[22] = NCI-H292 cells, cholesterol-free media with simvastatin 0.04 μM, cell growth value in FDA drug screen
[23] = NCI-H292 cells, complete media, cell growth value in FDA drug screen
[24] = Complete minus Cholesterol-free, greater than 0 enhanced anti-cancer activity, about 0 neutral, below 0 antagonists
[25] = NCI-H292 cells in cholesterol-free media without statin
[26] = NCI-H292 cells in complete media
[27] = complete vs cholesterol-free media, […]
[28] = NCI-H292 cells, FDA library drug in cholesterol-free media with simvastatin 0.04 μM
[29] = NCI-H292 cells, FDA library drug in complete media

Compound: COc1cc(N2CCC(N3CCN(C)CC3)CC2)ccc1Nc1ncc(Cl)c(Nc2ccccc2P(C)(C)=O)n1 [Brigatinib]
- Cholesterol-free media + simvastatin (0.04 μM) [1, 3]: 0.8361
- Complete Media [1, 4]: 0.6309
- Difference [1, 5]: −0.21
- Cholesterol-free [2, 6]: 0.5531
- Complete [2, 7]: 0.9482
- Difference [2, 8]: 0.40

Compound: C[C@]1(Cn2ccnn2)[C@H](C(=O)O)N2C(=O)C[C@H]2S1(=O)=O [Tazobactam]
- Cholesterol-free media + simvastatin (0.04 μM) [1, 9]: 1.141
- Complete Media [1, 10]: 1.299
- Difference [1, 11]: 0.16
- Difference [2, 12]: −0.10
- Cholesterol-free [2, 13]: 1.004
- Complete [2, 10]: 0.9006

Compound: Sumatriptan (succinate)
- Cholesterol-free media + simvastatin (0.04 μM) [1]: 1.195
- Complete Media [1]: 0.8897
- Difference [1]: −0.31
- Cholesterol-free [2]: 0.9558
- Complete [2]: 2.035
- Difference [2]: 1.08

Compound: CC(C)OC(=O)[C@H](C)N[P@](=O)(CO[C@H](C)Cn1cnc2c(N)ncnc21)Oc1ccccc1 [Tenofovir alafenamide fumarate]
- Cholesterol-free media + simvastatin (0.04 μM) [1]: 0.9223
- Complete Media [1]: 0.8712
- Difference [1]: −0.05
- Cholesterol-free [2]: 0.8261
- Complete [2]: 0.7078
- Difference [2]: −0.12

Compound: Cc1cc(=O)[nH]c(=S)[nH]1 [Methylthiouracil]
- Cholesterol-free media + simvastatin (0.04 μM) [1, 3]: 1.089
- Complete Media [1, 4]: 0.882
- Difference [1, 5]: −0.21
- Cholesterol-free [2, 14]: 1.055
- Complete ([2]; NCI-H292 cells, complete media): 0.7083
- Difference [2, 15]: −0.35

Compound: OB1OCc2cc(F)ccc21 [Tavaborole]
- Cholesterol-free media + simvastatin (0.04 μM) [1, 16]: 1.181
- Complete Media [1, 17]: 1.117
- Difference [1, 18]: −0.06
- Difference [2, 19]: −0.04
- Cholesterol-free [2, 6]: 1.018
- Complete [2, 7]: 0.9789

Compound: Flecainide (acetate)
- Cholesterol-free media + simvastatin (0.04 μM) [1, 9]: 1.399
- Complete Media [1, 10]: 2.119
- Difference [1, 11]: 0.72
- Cholesterol-free [2, 6]: 0.7015
- Complete [2, 7]: 1.125
- Difference [2, 8]: 0.42

Compound: Trimebutine (maleate)
- Cholesterol-free media + simvastatin (0.04 μM) [1, 9]: 0.6516
- Complete Media [1, 10]: 0.9282
- Difference [1, 20]: 0.28
- Difference [2, 21]: −0.13
- Cholesterol-free [2, 13]: 0.9442
- Complete [2, 10]: 0.8142

Compound: CCCCNC(=O)NS(=O)(=O)c1ccc(C)cc1 [Tolbutamide]
- Cholesterol-free media + simvastatin (0.04 μM) [1, 3]: 1.123
- Complete Media [1, 4]: 0.9256
- Difference [1, 5]: −0.20
- Difference [2, 19]: −0.25
- Cholesterol-free [2, 14]: 1.099
- Complete ([2]; NCI-H292 cells, complete media): 0.8474

Compound: O=C(CCCCCCC(=O)Nc1ccccc1)NO [Vorinostat]
- Cholesterol-free media + simvastatin (0.04 μM) [1, 3]: 0.872
- Complete Media [1, 4]: 0.635
- Difference [1, 5]: −0.24
- Difference [2, 12]: −0.17
- Cholesterol-free [2, 13]: 0.4861
- Complete [2, 10]: 0.3154

Compound: CC(=O)O[C@]1(C(C)=O)CC[C@H]2[C@@H]3C=C(Cl)C4=CC(=O)[C@@H]5C[C@@H]5[C@]4(C)[C@H]3CC[C@@]21C [Cyproterone acetate]
- Cholesterol-free media + simvastatin (0.04 μM) [1, 22]: 1.003
- Complete Media [1, 23]: 1.068
- Difference [1, 11]: 0.07
- Difference [2, 24]: −1.74
- Cholesterol-free [2, 25]: 2.754
- Complete [2, 26]: 1.015

Compound: N[C@@H](Cc1cc(I)c(Oc2ccc(O)c(I)c2)c(I)c1)C(=O)O [Liothyronine]
- Cholesterol-free media + simvastatin (0.04 μM) [1, 9]: 1.186
- Complete Media [1, 10]: 1.048
- Difference [1, 5]: −0.14
- Difference [2, 19]: −0.26
- Cholesterol-free [2, 14]: 1.173
- Complete ([2]; NCI-H292 cells, complete media): 0.9078

Compound: O=C1Cc2cc(CCN3CCN(c4nsc5ccccc45)CC3)c(Cl)cc2N1 [Ziprasidone]
- Cholesterol-free media + simvastatin (0.04 μM) [1, 22]: 0.9155
- Complete Media [1, 23]: 0.9832
- Difference [1, 11]: 0.07
- Difference [2, 24]: −0.52
- Cholesterol-free [2, 25]: 1.408
- Complete [2, 26]: 0.89

Compound: CC(C)OC(=O)CCC/C=C\C[C@@H]1[C@@H](/C=C/[C@@H](O)COc2cccc(C(F)(F)F)c2)[C@H](O)C[C@@H]1O [Travoprost]
- Cholesterol-free media + simvastatin (0.04 μM) [1, 16]: 0.9352
- Complete Media [1, 17]: 0.8818
- Difference [1, 18]: −0.05
- Difference [2, 24]: −1.01
- Cholesterol-free [2, 25]: 1.92
- Complete [2, 26]: 0.9075

Compound: COc1cccc2c1C(=O)c1c(O)c3c(c(O)c1C2=O)C[C@@](O)(C(=O)CO)C[C@@H]3O[C@H]1C[C@H](N)[C@H](O[C@@H]2CCCCO2)[C@H](C)O1 [Pirarubicin (Hydrochloride)]
- Cholesterol-free media + simvastatin (0.04 μM) [1, 16]: 0.5554
- Complete Media [1, 17]: 0.5244
- Difference ([1]; complete media minus cholesterol-free media + simvastatin (0.04 μM), […]): −0.03
- Difference [2, 21]: −0.09
- Cholesterol-free [2, 13]: 0.6484
- Complete [2, 10]: 0.5605

Compound: CCc1c2c(nc3ccc(OC(=O)N4CCC(N5CCCCC5)CC4)cc13)-c1cc3c(c(=O)n1C2)COC(=O)[C@]3(O)CC [Irinotecan (hydrochloride trihydrate)]
- Cholesterol-free media + simvastatin (0.04 μM) [1, 9]: 0.6283
- Complete Media [1, 10]: 0.5165
- Difference [1, 5]: −0.11
- Difference [2, 12]: −0.10
- Cholesterol-free [2, 13]: 0.3845
- Complete [2, 10]: 0.2808

Compound: CCC1=C[C@@H]2[C@H](C1)C[C@]2(CN)CC(=O)O [Mirogabalin]
- Cholesterol-free media + simvastatin (0.04 μM) [1, 3]: 1.082
- Complete Media [1, 4]: 0.8543
- Difference ([1]; complete media vs cholesterol-free media + simvastatin (0.04 μM), […]): −0.23
- Cholesterol-free [2, 6]: 0.5074
- Complete [2, 7]: 1.015
- Difference [2, 27]: 0.51

Compound: CCCC(CCC)C(=O)O [Valproic acid (sodium salt)]
- Cholesterol-free media + simvastatin (0.04 μM) [1, 3]: 0.961
- Complete Media [1, 4]: 0.7238
- Difference [1, 5]: −0.24
- Difference [2, 19]: −0.26
- Cholesterol-free [2, 14]: 0.9818
- Complete ([2]; NCI-H292 cells, complete media): 0.7267

Compound: Pefloxacin (mesylate)
- Cholesterol-free media + simvastatin (0.04 μM) [1, 3]: 1.02
- Complete Media [1, 4]: 0.8577
- Difference [1, 5]: −0.16
- Cholesterol-free [2, 14]: 1.183
- Complete ([2]; NCI-H292 cells, complete media): 0.8627
- Difference [2, 15]: −0.32

Compound: C#CC1(O)CC[C@H]2[C@@H]3CCC4=CC(=O)CC[C@@H]4[C@H]3CC[C@@]21CC (stereo partly drawn) [Norgestrel]
- Cholesterol-free media + simvastatin (0.04 μM) [1, 28]: 1.456
- Complete Media [1, 29]: 1.004
- Difference [1, 5]: −0.45
- Cholesterol-free [2, 14]: 1.349
- Complete ([2]; NCI-H292 cells, complete media): 1.022
- Difference [2, 15]: −0.33

Compound: Cc1cccc(C)c1NC(=O)C1CCCCN1C (stereo not drawn) [Mepivacaine]
- Cholesterol-free media + simvastatin (0.04 μM) [1, 28]: 1.558
- Complete Media [1, 29]: 0.984
- Difference [1, 5]: −0.57
- Difference [2, 12]: −0.09
- Cholesterol-free [2, 13]: 1.247
- Complete [2, 10]: 1.156

Compound: CN/C(=N/CCSCc1nc[nH]c1C)NC#N [Cimetidine]
- Cholesterol-free media + simvastatin (0.04 μM) [1, 28]: 1.358
- Complete Media [1, 29]: 0.952
- Difference [1, 5]: −0.41
- Difference [2, 24]: −0.70
- Cholesterol-free [2, 25]: 1.504
- Complete [2, 26]: 0.8083

Compound: COS(=O)(=O)[O-].COc1cc(N)cn[n+]1-c1ccccc1 [Amezinium (methylsulfate)]
- Cholesterol-free media + simvastatin (0.04 μM) [1, 9]: 1.322
- Complete Media [1, 10]: 1.744
- Difference [1, 20]: 0.42
- Cholesterol-free [2, 6]: 1.242
- Complete [2, 7]: 1.933
- Difference [2, 27]: 0.69

Compound: CC(=O)NCCCCCC(=O)O [6-Acetamidohexanoic acid]
- Cholesterol-free media + simvastatin (0.04 μM) [1, 3]: 1.04
- Complete Media [1, 4]: 0.7847
- Difference [1, 5]: −0.26
- Cholesterol-free [2, 14]: 1.348
- Complete ([2]; NCI-H292 cells, complete media): 1.01
- Difference [2, 15]: −0.34

Compound: CN1CCN(C2=Nc3cc(Cl)ccc3Nc3ccccc32)CC1 [Clozapine]
- Cholesterol-free media + simvastatin (0.04 μM) [1, 9]: 0.8452
- Complete Media [1, 10]: 1.094
- Difference [1, 11]: 0.25
- Difference [2, 19]: −0.23
- Cholesterol-free [2, 14]: 1.346
- Complete ([2]; NCI-H292 cells, complete media): 1.114
